Results as given in ChEMBL document CHEMBL3774336, “Identification of spirooxindole and dibenzoxazepine motifs as potent mineralocorticoid receptor antagonists” (Bioorg Med Chem, 2016).

Experiments:
[1] = molecular target: T1, Mineralocorticoid receptor (Homo sapiens, UniProt P08235, C808S)
[2] = molecular target: T1, Mineralocorticoid receptor; remark: listed apart in the source
[3] = molecular target: Histamine H1 receptor (Homo sapiens) (UniProt P35367); assay: Inhibition of histamine H1 receptor (unknown origin) at 10 uM
Chain of Histamine H1 receptor (Homo sapiens) (P35367 whole entry): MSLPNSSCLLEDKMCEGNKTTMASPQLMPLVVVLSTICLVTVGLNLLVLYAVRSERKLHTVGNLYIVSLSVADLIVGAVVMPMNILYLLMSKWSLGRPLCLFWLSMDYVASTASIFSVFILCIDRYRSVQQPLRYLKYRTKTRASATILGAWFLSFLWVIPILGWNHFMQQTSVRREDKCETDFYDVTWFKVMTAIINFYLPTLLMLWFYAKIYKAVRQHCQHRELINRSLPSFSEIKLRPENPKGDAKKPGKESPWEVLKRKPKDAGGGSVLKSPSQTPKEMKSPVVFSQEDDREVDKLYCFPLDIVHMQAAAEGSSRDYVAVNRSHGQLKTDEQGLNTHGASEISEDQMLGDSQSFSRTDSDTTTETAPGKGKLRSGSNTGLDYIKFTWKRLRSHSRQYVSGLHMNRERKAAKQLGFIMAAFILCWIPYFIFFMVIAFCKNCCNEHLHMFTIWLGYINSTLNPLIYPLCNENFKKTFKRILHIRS

[4] = molecular target: 5-hydroxytryptamine receptor 2B (Homo sapiens) (UniProt P41595); assay: Inhibition of serotonin 5H2B receptor (unknown origin) at 10 uM
Chain of 5-hydroxytryptamine receptor 2B (Homo sapiens) (P41595 whole entry): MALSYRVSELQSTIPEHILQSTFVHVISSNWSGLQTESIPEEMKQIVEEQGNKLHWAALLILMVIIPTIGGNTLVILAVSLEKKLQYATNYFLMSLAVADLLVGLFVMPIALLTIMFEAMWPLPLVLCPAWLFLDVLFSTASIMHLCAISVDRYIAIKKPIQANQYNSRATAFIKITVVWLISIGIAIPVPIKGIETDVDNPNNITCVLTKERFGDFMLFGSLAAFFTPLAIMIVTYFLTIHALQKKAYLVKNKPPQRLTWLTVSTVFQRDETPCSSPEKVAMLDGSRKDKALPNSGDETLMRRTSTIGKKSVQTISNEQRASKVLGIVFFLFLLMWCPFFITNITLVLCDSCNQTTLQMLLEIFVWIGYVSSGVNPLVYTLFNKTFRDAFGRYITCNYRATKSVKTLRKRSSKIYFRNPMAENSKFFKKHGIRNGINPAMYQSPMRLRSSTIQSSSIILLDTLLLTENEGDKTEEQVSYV

[5] = molecular target: Cytochrome P450 2C9 (Homo sapiens, UniProt P11712); assay: Inhibition of CYP2C9 (unknown origin); format: ADME
Chain of Cytochrome P450 2C9 (P11712 whole entry): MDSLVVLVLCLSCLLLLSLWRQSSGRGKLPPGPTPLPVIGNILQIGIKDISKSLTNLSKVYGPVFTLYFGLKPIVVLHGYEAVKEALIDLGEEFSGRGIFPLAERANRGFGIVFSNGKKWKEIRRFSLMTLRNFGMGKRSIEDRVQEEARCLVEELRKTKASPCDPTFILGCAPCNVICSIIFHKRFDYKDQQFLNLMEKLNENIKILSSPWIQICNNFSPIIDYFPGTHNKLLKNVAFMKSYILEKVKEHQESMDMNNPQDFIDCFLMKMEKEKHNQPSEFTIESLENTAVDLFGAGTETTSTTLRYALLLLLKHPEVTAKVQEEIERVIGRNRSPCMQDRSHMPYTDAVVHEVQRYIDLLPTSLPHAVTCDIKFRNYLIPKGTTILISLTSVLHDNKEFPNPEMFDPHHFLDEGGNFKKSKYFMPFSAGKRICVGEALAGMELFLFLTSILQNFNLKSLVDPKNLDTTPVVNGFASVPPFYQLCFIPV

[6] = molecular target: Cytochrome P450 2D6 (Homo sapiens, UniProt P10635); assay: Inhibition of CYP2D6 (unknown origin); format: ADME
Chain of Cytochrome P450 2D6 (P10635 whole entry): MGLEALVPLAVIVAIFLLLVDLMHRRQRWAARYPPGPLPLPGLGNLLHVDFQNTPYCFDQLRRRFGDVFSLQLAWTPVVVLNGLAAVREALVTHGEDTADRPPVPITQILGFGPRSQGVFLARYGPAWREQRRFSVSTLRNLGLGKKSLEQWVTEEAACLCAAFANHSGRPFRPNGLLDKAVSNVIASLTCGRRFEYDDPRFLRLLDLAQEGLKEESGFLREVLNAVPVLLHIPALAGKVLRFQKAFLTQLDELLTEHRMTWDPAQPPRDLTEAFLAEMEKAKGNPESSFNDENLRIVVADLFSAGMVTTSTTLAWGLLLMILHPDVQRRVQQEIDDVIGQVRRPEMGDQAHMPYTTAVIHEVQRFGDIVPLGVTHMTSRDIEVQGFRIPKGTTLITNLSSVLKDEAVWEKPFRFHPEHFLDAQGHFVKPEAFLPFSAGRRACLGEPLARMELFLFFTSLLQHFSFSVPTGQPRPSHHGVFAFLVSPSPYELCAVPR

[7] = molecular target: hERG (KCNH2) (Homo sapiens, UniProt Q12809); assay: Inhibition of human ERG (unknown origin) at 10 uM
Chain of hERG (KCNH2) (Q12809 whole entry): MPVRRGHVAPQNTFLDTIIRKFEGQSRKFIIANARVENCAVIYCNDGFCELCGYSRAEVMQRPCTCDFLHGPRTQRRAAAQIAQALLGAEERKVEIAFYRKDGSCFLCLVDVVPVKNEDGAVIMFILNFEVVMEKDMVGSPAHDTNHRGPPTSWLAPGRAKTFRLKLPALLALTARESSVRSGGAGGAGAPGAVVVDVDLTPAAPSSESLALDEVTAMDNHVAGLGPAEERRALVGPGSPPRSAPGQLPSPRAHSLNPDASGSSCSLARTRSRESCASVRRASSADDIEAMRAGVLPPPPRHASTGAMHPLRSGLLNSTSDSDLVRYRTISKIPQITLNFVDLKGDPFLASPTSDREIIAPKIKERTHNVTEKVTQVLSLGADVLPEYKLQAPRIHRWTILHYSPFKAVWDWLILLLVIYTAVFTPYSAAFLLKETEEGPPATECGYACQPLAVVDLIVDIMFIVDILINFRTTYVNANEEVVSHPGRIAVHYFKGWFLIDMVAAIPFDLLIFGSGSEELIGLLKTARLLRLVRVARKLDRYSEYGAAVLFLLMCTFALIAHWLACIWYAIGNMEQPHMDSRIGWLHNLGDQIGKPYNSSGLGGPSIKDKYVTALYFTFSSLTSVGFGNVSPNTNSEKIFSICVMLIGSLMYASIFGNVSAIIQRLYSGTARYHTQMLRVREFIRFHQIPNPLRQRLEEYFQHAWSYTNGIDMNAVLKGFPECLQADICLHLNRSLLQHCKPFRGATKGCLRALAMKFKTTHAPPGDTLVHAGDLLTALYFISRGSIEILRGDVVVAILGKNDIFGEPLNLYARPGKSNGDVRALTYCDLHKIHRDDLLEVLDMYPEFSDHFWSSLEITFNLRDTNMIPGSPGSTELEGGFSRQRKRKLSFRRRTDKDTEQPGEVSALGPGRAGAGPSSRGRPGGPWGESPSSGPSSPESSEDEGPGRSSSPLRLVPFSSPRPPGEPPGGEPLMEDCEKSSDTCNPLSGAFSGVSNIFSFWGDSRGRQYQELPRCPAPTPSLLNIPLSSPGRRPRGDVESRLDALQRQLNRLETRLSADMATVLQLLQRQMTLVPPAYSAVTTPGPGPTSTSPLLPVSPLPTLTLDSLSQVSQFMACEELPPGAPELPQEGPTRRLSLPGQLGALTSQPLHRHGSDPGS

[8] = molecular target: T2, Alpha-2A adrenergic receptor (Homo sapiens) (UniProt P08913); assay: Inhibition of adrenergic alpha2A receptor (unknown origin) at 10 uM
T2 sequence (whole entry): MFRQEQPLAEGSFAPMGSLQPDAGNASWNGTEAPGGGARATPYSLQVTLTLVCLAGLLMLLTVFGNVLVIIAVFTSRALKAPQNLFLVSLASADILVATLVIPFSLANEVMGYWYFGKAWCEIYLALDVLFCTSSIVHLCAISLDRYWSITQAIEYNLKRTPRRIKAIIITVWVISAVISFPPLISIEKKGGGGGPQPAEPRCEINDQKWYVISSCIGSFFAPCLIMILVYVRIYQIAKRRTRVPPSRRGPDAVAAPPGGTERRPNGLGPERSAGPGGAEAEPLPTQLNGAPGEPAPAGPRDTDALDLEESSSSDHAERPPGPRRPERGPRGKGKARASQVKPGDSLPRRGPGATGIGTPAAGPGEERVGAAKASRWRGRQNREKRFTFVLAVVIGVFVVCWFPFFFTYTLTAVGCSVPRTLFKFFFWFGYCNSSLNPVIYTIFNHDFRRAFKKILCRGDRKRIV

[9] = molecular target: T3, Progesterone receptor (Homo sapiens, UniProt P06401); assay: Inhibition of GST-tagged human progesterone receptor LBD domain expressed in insect cells by Gal4-based fluorescence polarization assay
T3 sequence (P06401 whole entry): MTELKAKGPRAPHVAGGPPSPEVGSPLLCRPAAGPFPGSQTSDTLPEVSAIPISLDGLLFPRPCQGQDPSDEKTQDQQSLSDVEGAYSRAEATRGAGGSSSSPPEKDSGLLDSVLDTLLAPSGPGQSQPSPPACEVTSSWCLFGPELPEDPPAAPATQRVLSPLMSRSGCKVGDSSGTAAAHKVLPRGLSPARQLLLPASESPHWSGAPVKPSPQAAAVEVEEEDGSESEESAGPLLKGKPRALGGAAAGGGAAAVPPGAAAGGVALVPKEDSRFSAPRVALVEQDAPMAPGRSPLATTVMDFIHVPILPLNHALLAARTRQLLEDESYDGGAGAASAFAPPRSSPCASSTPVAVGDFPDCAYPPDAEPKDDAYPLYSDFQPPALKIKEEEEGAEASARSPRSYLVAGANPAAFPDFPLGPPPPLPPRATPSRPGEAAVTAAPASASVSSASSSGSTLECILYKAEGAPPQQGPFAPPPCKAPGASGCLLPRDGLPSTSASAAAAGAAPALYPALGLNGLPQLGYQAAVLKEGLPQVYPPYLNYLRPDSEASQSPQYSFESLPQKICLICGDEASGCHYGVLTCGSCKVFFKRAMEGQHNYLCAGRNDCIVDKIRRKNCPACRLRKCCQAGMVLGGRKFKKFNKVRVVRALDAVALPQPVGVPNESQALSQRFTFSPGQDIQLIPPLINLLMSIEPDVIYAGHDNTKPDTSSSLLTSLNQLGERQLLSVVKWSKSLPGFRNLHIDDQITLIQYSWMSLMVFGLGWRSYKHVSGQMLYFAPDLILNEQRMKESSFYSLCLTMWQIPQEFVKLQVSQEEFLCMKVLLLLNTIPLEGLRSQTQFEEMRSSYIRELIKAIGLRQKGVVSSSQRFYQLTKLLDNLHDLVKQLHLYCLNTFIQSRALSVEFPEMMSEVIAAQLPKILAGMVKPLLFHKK

[10] = molecular target: T4, Estrogen receptor (Homo sapiens, UniProt P03372); assay: Inhibition of estrogen receptor (unknown origin) by Gal4-based luciferase assay
T4 sequence (P03372 whole entry): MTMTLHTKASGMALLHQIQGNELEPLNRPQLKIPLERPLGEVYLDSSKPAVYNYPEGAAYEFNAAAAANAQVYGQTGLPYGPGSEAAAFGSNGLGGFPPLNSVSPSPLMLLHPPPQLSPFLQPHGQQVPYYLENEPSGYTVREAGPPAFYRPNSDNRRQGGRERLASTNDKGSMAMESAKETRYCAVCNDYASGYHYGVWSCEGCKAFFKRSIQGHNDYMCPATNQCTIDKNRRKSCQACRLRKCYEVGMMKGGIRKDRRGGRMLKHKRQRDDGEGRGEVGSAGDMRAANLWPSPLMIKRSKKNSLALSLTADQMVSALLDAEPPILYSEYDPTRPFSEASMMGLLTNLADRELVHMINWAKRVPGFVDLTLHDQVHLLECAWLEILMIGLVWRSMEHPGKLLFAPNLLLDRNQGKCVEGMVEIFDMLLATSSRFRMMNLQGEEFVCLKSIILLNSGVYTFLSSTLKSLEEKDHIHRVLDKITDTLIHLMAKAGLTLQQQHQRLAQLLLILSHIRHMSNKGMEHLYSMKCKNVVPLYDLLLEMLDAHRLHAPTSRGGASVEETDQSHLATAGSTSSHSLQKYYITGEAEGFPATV

[11] = Half life of compound in rat liver microsomes; format: ADME
[12] = molecular target: Cytochrome P450 3A4 (Homo sapiens, UniProt P08684)
Chain of Cytochrome P450 3A4 (P08684 whole entry, the tested form may be a part): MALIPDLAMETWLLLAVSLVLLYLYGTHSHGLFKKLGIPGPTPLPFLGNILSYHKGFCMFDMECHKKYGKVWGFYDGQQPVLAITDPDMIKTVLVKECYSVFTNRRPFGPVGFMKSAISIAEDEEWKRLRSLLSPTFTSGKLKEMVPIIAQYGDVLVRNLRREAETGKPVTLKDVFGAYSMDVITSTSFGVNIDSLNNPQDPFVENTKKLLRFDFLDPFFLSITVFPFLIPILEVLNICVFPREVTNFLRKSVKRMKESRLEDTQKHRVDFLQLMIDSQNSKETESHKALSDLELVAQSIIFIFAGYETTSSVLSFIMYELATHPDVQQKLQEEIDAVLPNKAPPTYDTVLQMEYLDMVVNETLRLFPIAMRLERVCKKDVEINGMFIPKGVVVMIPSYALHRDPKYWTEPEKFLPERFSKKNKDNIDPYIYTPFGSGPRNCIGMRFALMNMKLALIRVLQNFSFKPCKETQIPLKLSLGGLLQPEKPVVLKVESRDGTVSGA
Description: Inhibition of CYP3A4 (unknown origin)

[13] = molecular target: T5, Glucocorticoid receptor (Homo sapiens, UniProt P04150); assay: Inhibition of GST-tagged human glucocorticoid receptor LBD domain expressed in insect cells at by Gal4-based fluorescence polarization assay
T5 sequence (P04150 whole entry): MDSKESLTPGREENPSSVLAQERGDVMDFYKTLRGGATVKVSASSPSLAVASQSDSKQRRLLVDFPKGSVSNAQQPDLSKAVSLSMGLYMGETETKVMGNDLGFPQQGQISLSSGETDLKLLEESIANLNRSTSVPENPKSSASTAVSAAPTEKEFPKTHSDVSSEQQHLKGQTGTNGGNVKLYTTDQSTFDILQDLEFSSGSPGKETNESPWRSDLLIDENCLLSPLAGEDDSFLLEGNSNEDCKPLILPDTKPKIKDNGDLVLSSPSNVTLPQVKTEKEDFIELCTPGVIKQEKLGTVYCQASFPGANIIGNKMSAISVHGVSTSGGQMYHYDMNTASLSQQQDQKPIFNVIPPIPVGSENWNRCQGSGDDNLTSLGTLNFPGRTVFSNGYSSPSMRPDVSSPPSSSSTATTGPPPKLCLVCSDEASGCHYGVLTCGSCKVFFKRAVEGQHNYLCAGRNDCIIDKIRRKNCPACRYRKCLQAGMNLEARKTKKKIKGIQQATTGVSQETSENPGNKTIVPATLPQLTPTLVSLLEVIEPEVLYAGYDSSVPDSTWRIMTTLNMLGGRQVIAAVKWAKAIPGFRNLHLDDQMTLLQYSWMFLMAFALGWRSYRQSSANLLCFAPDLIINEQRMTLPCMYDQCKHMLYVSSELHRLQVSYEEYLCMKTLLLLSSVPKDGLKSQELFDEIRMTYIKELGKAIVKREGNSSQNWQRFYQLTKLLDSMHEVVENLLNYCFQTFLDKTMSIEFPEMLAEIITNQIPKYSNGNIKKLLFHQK

T1 sequence (P08235 whole entry C808S): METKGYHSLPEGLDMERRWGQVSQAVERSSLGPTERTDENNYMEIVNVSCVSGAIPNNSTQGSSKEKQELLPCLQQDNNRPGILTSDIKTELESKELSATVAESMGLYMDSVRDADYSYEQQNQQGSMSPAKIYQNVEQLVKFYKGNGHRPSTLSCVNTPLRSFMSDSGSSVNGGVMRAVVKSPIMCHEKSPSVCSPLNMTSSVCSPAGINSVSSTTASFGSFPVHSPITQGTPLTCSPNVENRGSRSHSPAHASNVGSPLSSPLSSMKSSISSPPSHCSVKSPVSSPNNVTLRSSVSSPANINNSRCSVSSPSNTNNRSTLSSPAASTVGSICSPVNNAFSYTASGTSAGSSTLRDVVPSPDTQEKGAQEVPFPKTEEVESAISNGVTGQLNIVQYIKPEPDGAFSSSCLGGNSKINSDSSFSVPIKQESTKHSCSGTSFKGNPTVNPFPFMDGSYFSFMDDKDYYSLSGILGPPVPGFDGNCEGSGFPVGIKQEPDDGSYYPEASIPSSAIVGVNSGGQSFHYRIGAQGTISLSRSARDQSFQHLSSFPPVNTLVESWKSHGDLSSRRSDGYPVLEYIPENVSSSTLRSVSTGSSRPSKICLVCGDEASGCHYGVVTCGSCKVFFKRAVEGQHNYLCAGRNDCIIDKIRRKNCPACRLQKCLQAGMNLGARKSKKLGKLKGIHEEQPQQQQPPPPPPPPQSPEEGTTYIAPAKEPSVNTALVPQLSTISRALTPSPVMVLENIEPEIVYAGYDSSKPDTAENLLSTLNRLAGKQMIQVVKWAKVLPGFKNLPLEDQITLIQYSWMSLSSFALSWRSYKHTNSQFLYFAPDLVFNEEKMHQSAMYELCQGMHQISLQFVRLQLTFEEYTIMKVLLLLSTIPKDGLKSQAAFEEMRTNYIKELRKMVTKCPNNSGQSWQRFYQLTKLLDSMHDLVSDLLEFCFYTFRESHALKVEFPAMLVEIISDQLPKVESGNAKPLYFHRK

Compound | Ki [1] | IC50 [2] | inhibition [3] | inhibition [4] | IC50 [5] | IC50 [6] | inhibition [8] | IC50 [9] | IC50 [10] | half-life [11] | IC50 [12] | IC50 [13] | inhibition at 10 µM [7]
O=C1COc2ccc(S(=O)(=O)N(Cc3cccnc3)c3ccc(F)cc3)cc2N1 | > 10 nM | > 10 nM | – | – | – | – | – | – | – | – | – | – | –
O=C(c1ccc2c(c1)NC(=O)C21CCNCC1)N1c2ccccc2COc2cc(F)ccc21 | 1090 nM | 4930 nM | – | – | – | – | – | – | – | – | – | – | –
O=C1Nc2cc(CN3c4ccccc4COc4cc(F)ccc43)ccc2C12CCNCC2 | 1080 nM | 2990 nM | – | – | – | – | – | – | – | – | – | – | –
CN(C)CC(=O)N1CCC2(CC1)C(=O)Nc1cc(/C=C3\c4ccccc4COc4cc(F)ccc43)ccc12 | 6 nM | 6 nM | 77% | 79% | 3260 nM | 7.75 µM | 88% | > 5 µM | > 40 µM | 53 min | 4.78 µM | > 5 µM | 98%
O=S1(=O)Cc2ccc(/C=C3\c4ccccc4COc4cc(F)ccc43)cc2N1 | 694 nM | 2550 nM | – | – | – | – | – | – | – | – | – | – | –
C[N+]1([O-])CCC2(CC1)C(=O)Nc1cc(/C=C3\c4ccccc4COc4cc(F)ccc43)ccc12 (configuration not stated) | 19 nM | 44 nM | 65% | 66% | 17000 nM | > 30 µM | 60% | > 37 µM | > 37 µM | > 60 min | 26.1 µM | > 37 µM | 55%
O=C1Nc2cc(S(=O)(=O)N3c4ccccc4COc4cc(F)ccc43)ccc2C12CCNCC2 | 5490 nM | 5220 nM | – | – | – | – | – | – | – | – | – | – | –
OC1CCc2c(/C=C3\c4ccccc4COc4cc(F)ccc43)cccc21 (configuration not stated) | 14 nM | 318 nM | – | – | – | – | – | – | – | – | – | – | –
O=C1COc2ccc(N(Cc3cccnc3)c3ccc(F)cc3)cc2N1 | 1450 nM | 1510 nM | – | – | – | – | – | – | – | – | – | – | –
O=C1CCc2c(/C=C3\c4ccccc4COc4cc(F)ccc43)cccc21 | 13 nM | 148 nM | – | – | – | – | – | – | – | – | – | – | –
CC1(C)OC(=S)Nc2ccc(S(=O)(=O)N3c4ccccc4COc4cc(F)ccc43)cc21 | 6 nM | 21 nM | 33% | 71% | 397 nM | 4.1 µM | 85% | > 2 µM | > 2 µM | > 60 min | 0.363 µM | 0.651 µM | 48%
O=C(O)CCN1CCC2(CC1)C(=O)Nc1cc(/C=C3\c4ccccc4COc4cc(F)ccc43)ccc12 | 16 nM | 29 nM | 60% | 36% | 12600 nM | 29.9 µM | 75% | > 12 µM | > 12 µM | > 60 min | 26 µM | > 12 µM | 32%
O=c1[nH]c2cc(/C=C3\c4ccccc4COc4cc(F)ccc43)ccc2n1[C@@H]1C[C@@H]2COCCN2C1 | 9 nM | 23 nM | 49% | 62% | 1600 nM | > 30 µM | 76% | > 25 µM | > 25 µM | 34 min | 5.81 µM | > 25 µM | 62%

Further lines, with some results ahead:

Ki [1] | IC50 [2] | inhibition [3] | inhibition [4] | IC50 [5] | IC50 [6] | inhibition [8] | IC50 [9] | IC50 [10] | half-life [11] | IC50 [12] | IC50 [13] | Compound | inhibition at 10 µM [7]
162 nM | 2300 nM | – | – | – | – | – | – | – | – | – | – | O=C1COc2ccc(/C=C/c3ccc(F)cc3F)cc2N1 | –
144 nM | 772 nM | – | – | – | – | – | – | – | – | – | – | O=C1COc2ccc(C#Cc3ccc(F)cc3F)cc2N1 | –
129 nM | 56 nM | 1% | 34% | 1560 nM | 21.3 µM | 24% | – | – | – | – | – | O=C1COc2ccc(S(=O)(=O)N3c4ccccc4COc4cc(F)ccc43)cc2N1 | 28%
31 nM | 176 nM | 47% | 94% | 649 nM | 16.4 µM | 72% | – | – | – | 5.54 µM | – | O=C1COc2ccc(CN3c4ccccc4COc4cc(F)ccc43)cc2N1 | 29%
55 nM | 1570 nM | – | – | – | – | – | – | – | – | – | – | O=C1COc2ccc(/C=C(\c3ccccc3)c3ccc(F)cc3F)cc2N1 | –
258 nM | 1510 nM | – | – | – | – | – | – | – | – | – | – | O=C1COc2ccc(/C=C\c3ccc(F)cc3F)cc2N1 | –
20 nM | 103 nM | – | – | – | – | – | – | – | – | – | – | O=C1COc2ccc(CCc3ccc(F)cc3F)cc2N1 | –
230 nM | 306 nM | – | – | – | – | – | – | – | – | – | – | CN(Cc1ccc2c(c1)NC(=O)CO2)c1ccc(F)cc1F | –
980 nM | 1800 nM | – | – | – | – | – | – | – | – | – | – | O=C1COc2ccc(COc3ccc(F)cc3F)cc2N1 | –
